This is an account of results in patent US4342775A, “3-(1-Imidazolyl)-derivatives of 2,3-dihydro-4H-1-benzopyran” (Farmitalia Carlo Erba S.p.A., priority 1980, dated 1982).

For test [1], the system named is Icem: CER (SPF Caw) male rats fed standard diet Altromin. The experiment in a line: Experiment No. 2: serum lipids in rats fed standard diet Altromin. Type of test: in vivo, rat. The conditions noted are these: 50 mg/kg/os for 4 days; for Serum HDL total cholesterol, mean ± S.E.: ** p < 0.05; for Serum triglycerides, mean ± S.E. / Total serum cholesterol, mean ± S.E. / α/β lipoprotein total cholesterol, mean: *** p < 0.01. On the procedure: (§1) The activity of the compounds of the invention was evaluated on groups of Icem: CER (SPF Caw) male rats either fed for six days with hypercholesterolaemic diet according to C. E. Day [Schurr P. E., Schultz H. R., Day C. E. (Eds) Atherosclerosis and drug discovery--Plenum Pub. Corp., 217 (1976)] (Experiment No. 1) or fed standard diet Altromin (Experiment No. 2). "Altromin" is a trade mark.
(§2) The compounds were suspended in "Methocel" (methyl cellulose, a 0.5% suspension in water) and administered by stomach tube at the dose of 50 mg/kg for 4 days.
(§3) Groups of animals were treated with the suspending agent only (control groups).
(§4) The total serum cholesterol was determined with the method of Trinder P. J. [J. Clin. Pathol., 22, 246 (1969)].
The serum triglycerides were determined with the method of Mendez J. [J. Clin. Chem., 21, 768, (1975)].
(§5) The total serum HDL cholesterol was determined according to Demacker P. N. M. [Clin. Chem., 23, 1238, (1977)]. The total β-lipoprotein cholesterol was determined by difference between total serum cholesterol and HDL cholesterol.
W.--J. Amer. Stat. Ass., 50, 1096 (1955)]. Taking in account the ratio between α and β lipoprotein cholesterol it was necessary to make the variances homogeneous by a transformation of the values (√x).

The test system of test [2] is Icem: CER (SPF Caw) male rats fed hypercholesterolaemic diet. Put plainly: Experiment No. 1: serum lipids in rats fed hypercholesterolaemic diet. It is filed as in vivo, rat. The conditions noted are these: 50 mg/kg/os for 4 days, *** p < 0.01. On the procedure: as §1, §2, §3, §4, §5
Statistical analysis in experiment No. 1 was performed by the Student's test for independent samples or by the Cochran's t test when the variances were not homogeneous at the F ratio test [Bliss C. I.--Statistics in Biology, Vol. 1, page 213--Mc Graw Hill Book Company, New York, 1967; Cochran W. G., Cox G. M.--Experimental designs--J. Wiley e Sons Inc., New York, II Ed. (1968) page 100].
The Table 1 reports the values of serum total cholesterol and total HDL cholesterol and ratio between α and β lipoprotein total cholesterol from animals fed hypercholesterolaemic diet and treated with two compounds of the invention: 3-(1-imidazolyl)-2,3-dihydro-6-chloro-4H-1-benzopyran-4-one: compound A, and 3-(1-imidazolyl)-2,3-dihydro-6-chloro-4H-1-benzopyran-4-ol (trans isomer): compound B, in comparison with the values of the same variables in controls.

In test [3] the test system is collagen-induced platelet aggregation. The experiment in a line: in vitro collagen-induced platelet aggregation in platelet rich plasma (method of Born). Type of test: cell-based. The settings on record: final 25 mcg/ml; induced by 2 mcg/ml collagen; Guinea pig platelet rich plasma. The method, then: The compounds of the invention are also endowed with blood platelet-antiaggregating activity. This activity was evaluated e.g. "in vitro" on the basis of the ability of the test compounds to inhibit the collagen-induced platelet aggregation in Guinea pig platelet rich plasma according to the method of Born "Born G.V.R.--Nature, […] (1962)].

Take `O[C@H]1c2cc(Cl)ccc2OC[C@@H]1n1ccnc1` (relative stereo) [Compound B, 3-(1-imidazolyl)-2,3-dihydro-6-chloro-4H-1-benzopyran-4-ol (trans isomer)]: in test [1], the “Serum HDL total cholesterol, mean ± S.E.” value is 50.3 ± 1.7 mg/100 ml; the “Serum triglycerides, mean ± S.E.” value is given as 90.6 ± 6.1 mg/100 ml; the “Total serum cholesterol, mean ± S.E.” value is 72.4 ± 2.3 mg/100 ml; the “α/β lipoprotein total cholesterol, mean” value was determined as 1.432. In addition, in test [2], the “Serum HDL total cholesterol, mean ± S.E.” value is 47.6 ± 2.4 mg/100 ml; the “Total serum cholesterol, mean ± S.E.” value was 184.4 ± 19.7 mg/100 ml; the “α/β lipoprotein cholesterol, mean ± S.E.” value is on record as 0.3664 ± 0.055.

As for `O=C1c2cc(Cl)ccc2OCC1n1ccnc1` (stereo not drawn) [Compound A, 3-(1-imidazolyl)-2,3-dihydro-6-chloro-4H-1-benzopyran-4-one], in test [1], the “Serum HDL total cholesterol, mean ± S.E.” value worked out at 52.3 ± 2.5 mg/100 ml; the “Serum triglycerides, mean ± S.E.” value is 77.2 ± 7.0 mg/100 ml; the “Total serum cholesterol, mean ± S.E.” value was 73.4 ± 3.0 mg/100 ml; the “α/β lipoprotein total cholesterol, mean” value stood at 1.450. Further, in test [2], the “Serum HDL total cholesterol, mean ± S.E.” value is 44.3 ± 1.3 mg/100 ml; the “Total serum cholesterol, mean ± S.E.” value was 133.2 ± 10.1 mg/100 ml; the “α/β lipoprotein cholesterol, mean ± S.E.” value was 0.548 ± 0.052. Besides, in test [3], the “inhibition of platelet aggregation” value is “inhibit wholly”.
